Laboratory results published in US20240139211A1, “METHODS AND COMPOSITIONS FOR TREATING AMYOTROPHIC LATERAL SCLEROSIS” (Amylyx Pharmaceuticals, Inc., priority 2022, published 2024).
Where two headings read alike, the source gives them in different places.

Legend:
[1] = CYP reaction phenotyping, CYP control (negative control without CYP enzymes), % remaining; assay type: in vitro ADME; details: CYP Control 0.1 mg protein/mL, 5 μM TA, PB and TUDCA co-incubated
Description: The percent remaining of TA was calculated using the following equation: […]

OAT1 = molecular target: T1, OAT1 (Homo sapiens, UniProt Q4U2R8); assay: OAT1 inhibition, PAH uptake in transfected HEK cells
T1 sequence (Q4U2R8 1-563): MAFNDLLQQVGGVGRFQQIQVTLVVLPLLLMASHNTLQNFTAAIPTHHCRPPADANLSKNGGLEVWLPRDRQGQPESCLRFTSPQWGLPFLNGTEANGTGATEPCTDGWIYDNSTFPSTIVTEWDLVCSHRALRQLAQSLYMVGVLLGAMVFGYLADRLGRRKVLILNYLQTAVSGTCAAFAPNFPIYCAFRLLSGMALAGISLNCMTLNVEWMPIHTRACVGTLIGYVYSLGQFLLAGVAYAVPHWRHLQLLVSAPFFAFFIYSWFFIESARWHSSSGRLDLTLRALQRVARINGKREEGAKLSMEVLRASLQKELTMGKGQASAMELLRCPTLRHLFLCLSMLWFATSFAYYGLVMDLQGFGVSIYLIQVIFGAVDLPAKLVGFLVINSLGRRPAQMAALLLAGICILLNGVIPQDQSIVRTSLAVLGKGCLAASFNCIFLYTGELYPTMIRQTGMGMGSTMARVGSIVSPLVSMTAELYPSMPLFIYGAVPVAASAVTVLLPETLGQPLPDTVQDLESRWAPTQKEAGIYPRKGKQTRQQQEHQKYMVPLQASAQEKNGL

OCT2 = molecular target: T2, OCT2 (Homo sapiens, UniProt O15244); assay: in vitro
T2 sequence (O15244 1-555): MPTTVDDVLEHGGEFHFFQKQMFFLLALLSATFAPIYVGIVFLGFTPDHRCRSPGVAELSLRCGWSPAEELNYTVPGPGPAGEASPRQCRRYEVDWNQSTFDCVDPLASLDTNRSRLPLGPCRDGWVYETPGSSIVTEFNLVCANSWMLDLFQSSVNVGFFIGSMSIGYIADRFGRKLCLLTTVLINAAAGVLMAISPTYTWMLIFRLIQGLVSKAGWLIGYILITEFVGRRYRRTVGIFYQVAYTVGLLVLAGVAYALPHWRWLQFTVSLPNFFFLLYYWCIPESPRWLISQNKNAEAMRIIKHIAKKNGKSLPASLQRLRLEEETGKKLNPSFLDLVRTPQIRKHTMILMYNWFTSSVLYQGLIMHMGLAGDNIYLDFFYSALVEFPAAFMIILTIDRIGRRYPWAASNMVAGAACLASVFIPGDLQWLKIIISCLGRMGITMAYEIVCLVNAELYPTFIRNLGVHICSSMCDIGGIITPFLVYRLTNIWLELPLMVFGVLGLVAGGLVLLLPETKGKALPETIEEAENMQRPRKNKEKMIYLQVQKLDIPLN

CYP3A4/5 = CYP3A4/5 enzyme activity induction in hepatocyte cultures

In the case of tauroursodeoxycholic acid [TUDCA], the “% Remaining of TA” value ([1]; 0 min) is reported as 100%, the “% Remaining of TA” value ([1]; 5 min) is reported as 99.4% and the “% Remaining of TA” value ([1]; 10 min) is reported as 97.9%. For the same compound, the “% Remaining of TA” value ([1]; 20 min) was 95.9%, the “% Remaining of TA” value ([1]; 30 min) was 93.7% and the “% Remaining of TA” value ([1]; 60 min) was 101%. For the same compound, the “IC50 for in vitro inhibition of human OAT1” value (OAT1; previous study, converted) was 35 to 111 ng/mL and the IC50 (OAT1; read-out: IC50 for in vitro inhibition of human OAT1, previous study (Example 6)) was 74 to 222 nM.

Work on `O=C(O)Cc1ccccc1` [Phenylacetic acid, phenylacetic acid] yielded a potency estimated from few doses (OCT2) of under 7.5 mM.

With `C[C@H](CCC(=O)NCC(=O)O)[C@H]1CC[C@H]2[C@@H]3[C@@H](O)C[C@@H]4C[C@H](O)CC[C@]4(C)[C@H]3CC[C@]12C` [Glycoursodeoxycholic acid, glycoursodeoxycholic acid] the “Maximum fold induction of CYP3A4/5 activity” value (CYP3A4/5; Donor 1) was 1.34 fold, the “Maximum fold induction of CYP3A4/5 activity” value (CYP3A4/5; Donor 2) was 1.98 fold and the “Maximum fold induction of CYP3A4/5 activity” value (CYP3A4/5; Donor 3) was 2.70 fold. For the same compound, the “Maximum fold induction of CYP2B6 activity” value (CYP2B6; Donor 1) was 1.50 fold, the “Maximum fold induction of CYP2B6 activity” value (CYP2B6; Donor 2) was 2.81 fold and the “Maximum fold induction of CYP2B6 activity” value (CYP2B6; Donor 3) was 1.52 fold.
